Earlier results on one compound are cited in US20160068860A1, “TRANSGENIC PLANTS” (CONSEJO SUPERIOR DE INVESTIGACIONES CIENTIFICAS (CSIC), priority 2013, published 2016).

Series [1] has as its target PYR/PYL receptors in the presence of clade A PP2Cs (ternary complexes). The conditions noted are these: ternary complexes in the presence of certain clade A PP2Cs; read-out: Kd for ABA; cited from earlier work.
In series [2] the target is monomeric PYR/PYL receptors. The conditions noted are these: read-out: Kd for ABA; cited from earlier work.
The target of series [3] is dimeric PYR/PYL receptors. The conditions noted are these: read-out: Kd for ABA; cited from earlier work.

As usually defined, the Kd is the equilibrium constant for the complex coming apart. Regarding `CC1=CC(=O)CC(C)(C)[C@@]1(O)/C=C/C(C)=C\C(=O)O` [ABA, abscisic acid], the figures for the Kd in series [1], in series [2] and in series [3] were 30 to 60 nM, approximately 1000 nM and more than 50000 nM, respectively.
